# Reference: paper PMC7041944 (eLife, 2020)
# Read-outs that look alike come from different tables or passages of the source.
# Tests used:
# [1] = tested on: KOR; type: cell-based, murine
# [2] = tested on: MOR; type: cell-based, murine
# [3] = tested on: MOR; type: cell-based, murine; remark: listed apart in the source
# [4] = tested on: KOR; type: cell-based, murine; remark: listed apart in the source
# [5] = tested on: KOR; type: cell-based, murine; remark: listed apart in the source
# [6] = tested on: KOR; type: cell-based, murine; remark: listed apart in the source
# [7] = tested on: KOR; assay: mGs probe recruitment to KOR (TIR-FM); type: cell-based, murine; settings: DynA 1 nM - 10 μM; Venus-mGs, HEK293, TIR-FM
# Method: Live cell image series measuring protein recruitment to the plasma membrane were performed at 37°C using a Nikon Ti-E microscope equipped for through-the-objective TIR-FM with a temperature-, humidity- and CO2-controlled chamber (Okolab), objective heater, perfect focus system, and an Andor DU897 EMCCD camera. Images were obtained with a 100 × 1.49 NA Apo TIRF objective (Nikon) with solid-state lasers of 488, 561 and 647 nm (Keysight Technologies). Before imaging, receptors at the cell surface were labelled with M1 monoclonal FLAG antibody (1:1,000) conjugated to Alexa647 dye for 10 min at 37°C. Cells were then washed and live imaged in HBS imaging solution (Hepes buffered saline (HBS) with 135 mM NaCl, 5 mM KCl, 0.4 mM MgCl2,1.8 mM CaCl2, 20 mM Hepes, 5 mM d-glucose adjusted to pH 7.4 and 300–315 mOsmol/l). Agonists or antagonists were either added by bath application at concentrations indicated in the figure legends or by media perfusion. For the latter, an insert was 3D-printed and placed inside the imaging dish where it left a dead volume of about 300 μL. […]
# For probing protein recruitment to the plasma membrane, HEK293 cells co-expressing the cytosolic protein of interest (mGsi, Nb33, or GRK2) and MOR or KOR were imaged using TIR-FM. […] Protein intensity during time lapse series was measured using ImageJ. […]
# [8] = tested on: KOR; type: cell-based, murine; remark: listed apart in the source
# [9] = molecular target: signal sequence FLAG (ssf)-KOR, murine (kappa opioid receptor) (murine) (UniProt P33534); assay: TIR-FM recruitment of a fluorescent cytosolic protein to the plasma membrane of living cells; HEK293 cells co-expressing the fluorescent cytosolic protein and the receptor; 37 C, HBS imaging solution pH 7.4; agonists added in rising concentrations (1 nM - 10 uM) by bath application or perfusion: DynA, U69, U50, etorphine for KOR; DAMGO, etorphine, morphine, PZM21, MP for MOR; reversed by the antagonists 5'GNTI or naloxone; also with Cmpd101 (30 uM)
# Sequence of UniProt P33534 (P33534 whole entry, the tested form may be a part): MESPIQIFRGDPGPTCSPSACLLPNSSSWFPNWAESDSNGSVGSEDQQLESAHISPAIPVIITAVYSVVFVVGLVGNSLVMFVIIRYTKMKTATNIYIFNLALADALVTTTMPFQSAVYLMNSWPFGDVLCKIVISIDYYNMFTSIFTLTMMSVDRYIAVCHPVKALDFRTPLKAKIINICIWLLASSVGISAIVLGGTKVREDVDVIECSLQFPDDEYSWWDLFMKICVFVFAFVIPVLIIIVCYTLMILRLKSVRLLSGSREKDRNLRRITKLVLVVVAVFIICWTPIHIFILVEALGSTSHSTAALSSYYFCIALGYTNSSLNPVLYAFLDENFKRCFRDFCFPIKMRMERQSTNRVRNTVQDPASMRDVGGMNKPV
compound,measurement,setting,value
"Cl.Cl.NC(N)=Nc1ccc2[nH]c3c(c2c1)C[C@@]1(O)[C@H]2Cc4ccc(O)c5c4[C@@]1(CCN2CC1CC1)[C@H]3O5 [5’GNTI, GNTI dihydrochloride]",reversal of DynA-induced mGsi recruitment by KOR antagonist,[1],rapid redistribution of the biosensor back to the cytoplasm
"CC[C@@H]1CN2CC[C@]3(Nc4cccc(OC)c4C3=O)[C@@H]2C[C@@H]1/C(=C\OC)C(=O)OC [MP, mitragynine pseudoindoxyl]","mGsi/Nb33, ratio of intrinsic activities",[2],7.47
same,"I.A.(mGsi), intrinsic activity (maximal response)",[2]; SEM,0.31±0.02
same,Nb33 recruitment by MOR (in words),[3],without promoting detectable recruitment
same,"I.A.(Nb33), intrinsic activity (maximal response)",[3]; SEM,0.04±0.05
C[C@@H](Cc1ccsc1)NC(=O)NC[C@H](Cc1ccc(O)cc1)N(C)C [PZM21],"mGsi/Nb33, ratio of intrinsic activities",[2],2.60
same,"I.A.(mGsi), intrinsic activity (maximal response)",[2]; SEM,0.70±0.02
same,"I.A.(Nb33), intrinsic activity (maximal response)",[3]; SEM,0.27±0.05
"DAMGO, [D-Ala2, N-Me-Phe4, Gly5-ol]-Enkephalin acetate salt","I.A.(mGsi), intrinsic activity (maximal response)",[2],1.00
same,"mGsi/Nb33, ratio of intrinsic activities",[2],1
same,"I.A.(Nb33), intrinsic activity (maximal response)",[3],1.00
"Dynorphin A (1–17, DynA)","I.A.(mGsi), intrinsic activity (maximal response)",[1],1.00
same,"mGsi/Nb33, ratio of intrinsic activities",[1],1
same,"I.A.(Nb33), intrinsic activity (maximal response)",[4],1.00
same,GRK2 recruitment in cells pre-exposed to pertussis toxin,[5],significant recruitment response
same,GRK2 accumulation at KOR-containing clusters (in words),[6],specifically accumulated at the KOR-containing clusters
same,mGs recruitment in response to KOR activation,[7],not detectably recruited
same,recruitment of isolated C-terminal PH domain from GRK2 (GRK2-C-tail),[8],similarly strong recruitment
NES-Venus-mGsi (mini-G protein: Ras-like domain of Gs alpha with nine distal C-terminal residues from Gi alpha1) (designed binder),"maximum recruitment with etorphine, percent of that with DynA",[9],67%
